# From patent US20210145716A9, “COMPOSITION FOR HAIR FRIZZ REDUCTION” (The Procter & Gamble Company, priority 2015, published 2021)
# Assay: Expert rating of hair switches for frizz, clean feel and greasy feel
# Settings: 1% in ethanol/water leave-on, pH 4.2
# Procedure: Additional leave-on treatment compositions are prepared (Tables 1 and 2) according to the procedure described above, which are used to treat hair switches using the procedure described above (amount of 0.10 g of composition per g of hair). The switch is kept at high humidity (above 85%) for 2 hours. Then, ten experts are asked to rate each hair switch in terms of frizz, clean feel, and greasy feel, based on a 5 point scale, 5 being the highest and 1 being the lowest rating. Acceptable values are: • For frizz, less than 2 (lower number corresponds to less frizz); • For no greasy feel less than 3, (lower number corresponds to less greasy feel), and • For clean feel greater than 3 (higher number corresponds to cleaner feel).
row,SMILES,Hair switch rating summary (in words)
1,O=C(OCCO)c1ccccc1O [2-Hydroxyethyl salicylate],frizz protection with clean feel and without greasy feel negative
2,CCCCCCCCC(CO)CCCCCC (stereo not shown) [2-Hexyl-1-decanol],frizz protection with clean feel and without greasy feel negative
3,CC(C)CCCCCCCCCCCCCCCOC(=O)CCCCCCCCCCCCCCC(C)C [Isostearyl isostearate],frizz protection with clean feel and without greasy feel negative
4,O=C(O)c1ccccc1O [Salicylic acid],fizz protection with clean feel and without greasy feel negative
5,O=C(O)c1cc(Cl)ccc1O [5-Chlorosalicylic acid],fizz protection with clean feel and without greasy feel negative
6,"O=C(O)c1ccc(O)cc1O [2,4-Dihydroxybenzoic acid]",fizz protection with clean feel and without greasy feel negative
7,O=S(=O)(O)c1ccc(O)cc1 [4-Hydroxybenzenesulphonic acid],fizz protection with clean feel and without greasy feel negative
